Experimental data: patent publication US8318657B2, “Methods and compositions for preventing and/or treating pancreatitis” (Flinders Technologies Pty Ltd., priority 2005, dated 2012)
“Also recorded” adds a separate entry of the source.

Columns and labels:
[1] = system: possum model of acute pancreatitis (AP); test: Possum model of acute pancreatitis (pancreatic duct ligation + CCK/secretin) with galanin or galantide; assay type: in vivo, Australian Brush-tailed possums (Trichosurus vulpecula); conditions: for plasma amylase activity / plasma lipase activity / pancreatic vascular perfusion (PVP) / pancreatic oedema: possum AP; for pancreatic oedema: pancreas harvested 8 hours post-AP induction, H&E, point counting, treatment from 15 minutes prior to AP induction, decrease of AP-induced oedema
[2] = system: hyperstimulated pancreatic exocrine secretion; test: Hyperstimulated (CCK/secretin) pancreatic exocrine secretion in anaesthetised possums; assay type: in vivo, Australian Brush-tailed possums (Trichosurus vulpecula); conditions: CCK/secretin 5 ug/kg of each/hour i.v., galanin 0.5 or galantide 1.5 nmol/kg bolus then 2 nmol/kg/h, decrease of elevated volume, preliminary study
Procedure: The experimental setup was similar to as described above. In the control group after an initial stabilization period of 15 minutes, the pancreatic juice was collected at half hourly intervals for one hour. This established the basal secretion rate. Then a mixture of cholecystokinin and secretin (CCK-SEC) was infused i.v at 5 μg (of each peptide)/kg/hr for the entire duration of the experiment.
The galanin or galantide infusion was continued for one and a half hour and then stopped. The CCK-SEC infusion was further continued for one hour. During the entire course of experiment, pancreatic juice was collected at half hourly intervals.
(§1) The quantity of pancreatic exocrine secretion was estimated gravimetrically (basal secretion and stimulated secretion).

[3] = system: caerulein-induced acute pancreatitis (AP) in mice; test: Caerulein-induced acute pancreatitis in mice (mild model, 7 hourly i.p. injections) with galanin or galanin antagonists; assay type: in vivo, mouse (female Balb C or Swiss); conditions: for pancreatic acinar cell necrosis score: histology scoring system
[4] = system: basal pancreatic exocrine secretion; test: Basal pancreatic exocrine secretion in anaesthetised possums; assay type: in vivo, Australian Brush-tailed possums (Trichosurus vulpecula); conditions: galanin 0.5 or galantide 1.5 nmol/kg bolus then 2 nmol/kg/h i.v., preliminary study
Procedure: The possums were anaesthetized as described above. The left femoral vein was cannulated with two cannulae (1.05 mm OD, 0.35 ID) for administration of anaesthetic drugs and normal saline. […] A midline laparotomy was then performed. With minimal handling of tissues, the duodenum with the sphincter of Oddi was placed on a platform and stabilised with pins. The pancreatic duct component of the sphincter of Oddi was identified with the aid of a dissecting microscope and opened with micro-scissors. It was then cannulated (1.5 mm OD, 0.9 mm ID) advanced 4-5 mm and ligated with 5-0 prolene suture. This cannula was left open to collect pancreatic juice. After an initial stabilization period of 15 minutes, the pancreatic juice was collected every 30 minutes for 3.5 hours.
as §1

[5] = system: mice without acute pancreatitis; test: Control groups: mice given galanin or galanin antagonist alone (saline, no caerulein); conditions: mice without AP
[6] = GT 1.5 nmol/kg bolus then 2 nmol/kg/h i.v., delayed: initiated 2 hours post-AP induction
[7] = GT 1.5 nmol/kg bolus then 2 nmol/kg/h i.v., delayed: initiated 2 hours post-AP induction, listed as GT
[8] = i.v. bolus (GL 0.5, GT 1.5 nmol/kg) then 2 nmol/kg/h continuous infusion, initiated 15 minutes prior to AP induction, effect on AP-induced rise
[9] = i.v. bolus (GL 0.5, GT 1.5 nmol/kg) then 2 nmol/kg/h continuous infusion, initiated 15 minutes prior to AP induction, effect on AP-induced rise, listed as GT
[10] = mouse caerulein AP, 20 nmol/kg i.p. with each caerulein injection, reduction of AP-induced level
[11] = mouse caerulein AP, 40 nmol/kg i.p. with each caerulein injection, reduction of AP-induced level
[12] = mouse caerulein AP, GT 40 nmol/kg, treatment delayed for 2 hours post-AP induction

In the case of `CSCC[C@H](NC(=O)[C@H](CC(C)C)NC(=O)CNC(=O)[C@H](Cc1ccccc1)NC(=O)[C@H](Cc1ccccc1)NC(=O)[C@H](CCC(N)=O)NC(=O)[C@H](CCC(N)=O)NC(=O)[C@@H]1CCCN1C(=O)CNC(=O)[C@H](CC(C)C)NC(=O)[C@H](CC(C)C)NC(=O)[C@H](Cc1ccc(O)cc1)NC(=O)CNC(=O)[C@H](C)NC(=O)[C@H](CO)NC(=O)[C@H](CC(N)=O)NC(=O)[C@H](CC(C)C)NC(=O)[C@@H](NC(=O)[C@H](Cc1c[nH]c2ccccc12)NC(=O)CN)[C@@H](C)O)C(N)=O` [Galantide, Galanin(1-13)-substance P(5-11) amide], the plasma amylase activity [1, 6] is reported as “reduces plasma amylase and lipase secretion”, the plasma lipase activity [1, 6] is reported as “reduces plasma amylase and lipase secretion” and the plasma amylase activity [1, 7] is reported as “reduced the AP-induced rise in plasma amylase activity”. For the same compound, the plasma lipase activity [1, 7] was “suppressed the AP-induced rise in plasma lipase activity”, the “pancreatic vascular perfusion (PVP)” value ([1]; i.v. bolus (GL 0.5, GT 1.5 nmol/kg) then 2 nmol/kg/h continuous infusion, initiated 15 minutes prior to AP induction) was “increases PVP from the outset” and the plasma amylase activity [1, 8] was “completed prevented the pancreatitis-induced increase in plasma amylase”. The plasma lipase activity [1, 8] was “markedly depressed the pancreatitis-induced increase in plasma lipase”, the plasma amylase activity [1, 9] was “completely suppressed the AP-induced rise in plasma amylase activity” and the plasma lipase activity [1, 9] was “markedly suppressed the AP-induced rise in plasma lipase activity”. For the same compound, the “pancreatic vascular perfusion (PVP)” value ([1]; i.v. bolus (GL 0.5, GT 1.5 nmol/kg) then 2 nmol/kg/h continuous infusion, initiated 15 minutes prior to AP induction, listed as GT) was “sustained fall in PVP”, the pancreatic oedema [1] was “reduced” and the pancreatic oedema ([1]; listed as GT) was “significantly decreased”. For the same compound, the “severity of pancreatitis (summary)” value ([1]; possums, administration prior to the onset and also after onset of acute pancreatitis) was “reduces the severity of pancreatitis”, the “hyperstimulated pancreatic exocrine secretion (volume of pancreatic juice)” value [2] was “does reduce hyper-stimulated exocrine secretion” and the “hyperstimulated pancreatic exocrine secretion (volume of pancreatic juice)” value ([2]; listed as galantide) was “decreased”. For the same compound, the “pancreatic myeloperoxidase (MPO) activity” value (from here on “pancreatic myeloperoxidase”) ([3]; mouse caerulein AP, 10 nmol/kg i.p. with each caerulein injection, reduction of AP-induced level, listed as GT) was “also effective; also recorded: significantly reduced”, the “pancreatic tissue architecture / AP-induced pancreatic damage (histological sections)” value ([3]; mouse caerulein AP, 20 nmol/kg) was “reduced the acute pancreatitis-induced pancreatic damage” and the “pancreatic myeloperoxidase” value [3, 10] was “significantly reduced”. The plasma amylase activity [3, 10] was “reduced the plasma amylase level”, the plasma lipase activity [3, 10] was “significantly reduced” and the plasma amylase activity ([3]; mouse caerulein AP, 20 nmol/kg i.p. with each caerulein injection, reduction of AP-induced level, listed as GT) was “significantly reduced”. For the same compound, the “pancreatic acinar cell necrosis score” value ([3]; mouse caerulein AP, 20 nmol/kg) was “reduced the pancreatitis-induced necrosis”, the “pancreatic acinar cell necrosis score” value ([3]; mouse caerulein AP, 20 nmol/kg, listed as GT) was “significantly reduced the necrosis score” and the “histology score (pancreatic tissue damage)” value ([3]; mouse caerulein AP, 20 nmol/kg, scoring system) was “significantly reduced the histology score”. The plasma amylase activity [3, 11] was “reduced the plasma amylase level”, the plasma lipase activity [3, 11] was “significantly reduced” and the plasma amylase activity ([3]; mouse caerulein AP, 40 nmol/kg i.p. with each caerulein injection, reduction of AP-induced level, listed as GT) was “significantly reduced”. The “pancreatic myeloperoxidase” value ([3]; mouse caerulein AP, 40 nmol/kg i.p. with each caerulein injection, vs AP alone) was “significantly reduced”, the plasma amylase activity [3, 12] was “significantly reduced” and the plasma lipase activity [3, 12] was “significantly reduced”. The pancreatitis-induced plasma hyperenzymemia ([3]; mouse caerulein AP, galantide administered 2 hours post pancreatitis onset, preliminary results) was “reduces the pancreatitis-induced plasma hyperenzymemia”, the “severity of pancreatitis (summary)” value ([3]; mouse pancreatitis studies) was “has the ability to reduce the severity of pancreatitis” and the “basal rate of pancreatic exocrine secretion (volume)” value [4] was “does not influence basal exocrine secretion (volume)”. For the same compound, the “pancreatic myeloperoxidase” value ([5]; 20 nmol/kg alone) was “did induce a low level of pancreatic MPO”, the “pancreatic tissue architecture (histological sections)” value ([5]; 20 nmol/kg alone) was “near normal pancreatic architecture” and the plasma amylase activity ([5]; 20 nmol/kg alone, vs baseline) was “did not increase plasma amylase activity above baseline activity”. The plasma lipase activity ([5]; 20 nmol/kg alone, vs baseline) was “did not increase plasma lipase activity above baseline activity” and the “pancreatic myeloperoxidase” value ([5]; 40 nmol/kg alone) was “did induce a low level of pancreatic MPO”.
